The results in this text go back to PubChem BioAssay (NCI).

Among the test systems are 786-0 renal; A498 renal; ACHN renal; EKVX NSCLC; HCT-116 colon; HCT-15 colon; K-562 leukemia; MDA-MB-231 breast; MDA-N; MOLT-4 leukemia; NCI-H460 lung; OVCAR-4 ovarian; OVCAR-5 ovarian; RPMI-8226 leukemia; SF-539 CNS; SK-MEL-2 melanoma; SK-MEL-28 melanoma; SW-620 colon; UACC-62 melanoma; UO-31 renal.
Holding throughout (experiment): inhibition of tumour cell growth, NCI panel, 48 h

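96-well plates; 48 h exposure; 5 concentrations. Endpoints by linear interpolation between flanking doses. Not reached: highest tested concentration assigned. TGI is the concentration that stops growth completely.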

Consider `Clc1nssc1=Nc1nonc1-c1ccccc1`, for which the TGI in the assay on 786-0 renal was above 100 µM; in the assay on A498 renal, above 100 µM; in the assay with ACHN renal it was 36.1 µM; in the assay with EKVX NSCLC, above 100 µM; with HCT-116 colon it was above 100 µM; in the assay with HCT-15 colon, above 100 µM. For the same compound, the TGI was 70.1 µM with K-562 leukemia; 34.5 µM in the assay with MDA-MB-231 breast; 41.2 µM in the assay with MDA-N; 69.8 µM with MOLT-4 leukemia; above 100 µM in the assay on NCI-H460 lung; above 100 µM with OVCAR-4 ovarian. Besides, the TGI is 49.3 µM in the assay on OVCAR-5 ovarian; 63.3 µM in the assay with RPMI-8226 leukemia; 66.1 µM with SF-539 CNS; above 100 µM in the assay with SK-MEL-2 melanoma; above 100 µM with SK-MEL-28 melanoma; above 100 µM in the assay on SW-620 colon. Besides, the TGI was above 100 µM in the assay with UACC-62 melanoma and 36.3 µM in the assay with UO-31 renal.

On to `CC[C@@H]1C(=O)OC[C@@H]1Cc1cncn1C`, for which the TGI in the assay with 786-0 renal, in the assay with A498 renal, with ACHN renal, with EKVX NSCLC, in the assay with HCT-116 colon and in the assay on HCT-15 colon was above 100 µM each time. Also, the TGI in the assay with K-562 leukemia, with MDA-MB-231 breast, in the assay with MDA-N, in the assay on MOLT-4 leukemia, in the assay with NCI-H460 lung and with OVCAR-4 ovarian was above 100 µM throughout. For the same compound, the TGI with OVCAR-5 ovarian, in the assay with RPMI-8226 leukemia, in the assay with SF-539 CNS, in the assay on SK-MEL-2 melanoma, in the assay with SK-MEL-28 melanoma and with SW-620 colon was above 100 µM each time. Besides, the TGI in the assay on UACC-62 melanoma and in the assay on UO-31 renal was above 100 µM in each case.

Consider `CC1=CC[C@H](C(C)C)C(C(O)[C@@H](C)O[Si](c2ccccc2)(c2ccccc2)C(C)(C)C)C1=O` (stereo not given in full), for which the TGI with 786-0 renal stood at 32.7 µM; in the assay with A498 renal it was 35.5 µM; in the assay on ACHN renal, 31.1 µM; with EKVX NSCLC it was 28.9 µM; with HCT-116 colon it was 28.7 µM; in the assay on HCT-15 colon, 36.4 µM. For the same compound, the TGI in the assay on K-562 leukemia is above 100 µM; in the assay on MDA-MB-231 breast it was 32.4 µM; with MDA-N, 53 µM; with MOLT-4 leukemia, above 100 µM; in the assay with NCI-H460 lung it was 37.2 µM; with OVCAR-4 ovarian, 41 µM. The TGI is 36.2 µM with OVCAR-5 ovarian; 48 µM in the assay on RPMI-8226 leukemia; 44.1 µM with SF-539 CNS; 32 µM in the assay on SK-MEL-2 melanoma; above 100 µM in the assay on SK-MEL-28 melanoma; 65.5 µM in the assay with SW-620 colon. For the same compound, the results for the TGI in the assay on UACC-62 melanoma and with UO-31 renal were 33.6 µM and 31.7 µM, respectively.

For `C=CCN1C(=O)/C(=C\c2cc(C(C)(C)C)c(O)c(C(C)(C)C)c2)NC1=S`, the TGI with 786-0 renal was 55.7 µM; in the assay on A498 renal it was 90.8 µM; in the assay on ACHN renal it was 90.2 µM; with EKVX NSCLC, 65.1 µM; in the assay with HCT-116 colon, 35.4 µM; in the assay with HCT-15 colon it was above 100 µM. Besides, the TGI in the assay with K-562 leukemia was above 100 µM; with MDA-MB-231 breast, 34.9 µM; with MDA-N, above 100 µM; in the assay on MOLT-4 leukemia, above 100 µM; in the assay with NCI-H460 lung, 36.8 µM; with OVCAR-4 ovarian, above 100 µM. The TGI in the assay with OVCAR-5 ovarian is above 100 µM; in the assay with RPMI-8226 leukemia it was above 100 µM; in the assay on SF-539 CNS it was above 100 µM; in the assay on SK-MEL-2 melanoma it was 31.8 µM; in the assay with SK-MEL-28 melanoma it was above 100 µM; with SW-620 colon, above 100 µM. Besides, the TGI in the assay on UACC-62 melanoma was 33.1 µM; with UO-31 renal it was above 100 µM.

For `COc1ccc(/C=C2\CN(C)C/C(=C\c3ccc(OC)cc3)C2=O)cc1`, the TGI with 786-0 renal, in the assay on A498 renal, in the assay with ACHN renal, in the assay with EKVX NSCLC, in the assay on HCT-116 colon and in the assay on HCT-15 colon was above 100 µM in each case. The TGI with K-562 leukemia, with MDA-MB-231 breast, with MDA-N, with MOLT-4 leukemia, in the assay with NCI-H460 lung and with OVCAR-4 ovarian was above 100 µM each time. Moreover, the TGI in the assay on OVCAR-5 ovarian, with RPMI-8226 leukemia, in the assay with SF-539 CNS, in the assay on SK-MEL-2 melanoma, in the assay with SK-MEL-28 melanoma and with SW-620 colon was above 100 µM in each case. In addition, the TGI with UACC-62 melanoma and in the assay with UO-31 renal was above 100 µM in each case.

Turning to `COc1ccc(N2C(=O)[C@H]3[C@H]4CC(C(C)(C)C)CC[C@H]4c4c(n(C)c5ccccc45)[C@H]3C2=O)cc1` (stereo not given in full), the TGI in the assay on 786-0 renal is above 100 µM; in the assay on A498 renal, above 46.4 µM; in the assay with ACHN renal it was above 100 µM; with EKVX NSCLC, above 46.4 µM; with HCT-116 colon, above 100 µM; in the assay with HCT-15 colon it was above 56.2 µM. The TGI with K-562 leukemia is above 100 µM; in the assay on MDA-MB-231 breast, above 100 µM; with MDA-N, above 100 µM; in the assay on MOLT-4 leukemia it was above 100 µM; in the assay on NCI-H460 lung it was above 63.8 µM; with OVCAR-4 ovarian it was above 100 µM. For the same compound, the TGI with OVCAR-5 ovarian was above 100 µM; in the assay with RPMI-8226 leukemia it was above 100 µM; in the assay on SF-539 CNS it was above 46.4 µM; in the assay with SK-MEL-2 melanoma, above 100 µM; in the assay on SK-MEL-28 melanoma it was above 100 µM; in the assay with SW-620 colon it was above 100 µM. Further, the TGI in the assay on UACC-62 melanoma and in the assay on UO-31 renal was above 100 µM throughout.

Turning to `O=c1[nH]/c(=C/c2ccc(OCc3ccccc3)cn2)c(=O)[nH]/c1=C/c1ccc(F)cc1`, the TGI was 30 µM in the assay on 786-0 renal; above 100 µM with A498 renal; above 76.2 µM in the assay with ACHN renal; above 93.6 µM with EKVX NSCLC; above 100 µM in the assay on HCT-116 colon; above 42.6 µM in the assay on HCT-15 colon. Further, the TGI with K-562 leukemia is above 36.4 µM; in the assay with MDA-MB-231 breast, above 51.3 µM; in the assay on MDA-N, 0.259 µM; in the assay with MOLT-4 leukemia it was above 34.4 µM; in the assay with NCI-H460 lung, above 34.2 µM; with OVCAR-4 ovarian, above 82.1 µM. Also, the TGI in the assay with OVCAR-5 ovarian is above 100 µM; in the assay with RPMI-8226 leukemia, 10.8 µM; with SF-539 CNS it was 19.3 µM; with SK-MEL-2 melanoma, above 52.2 µM; in the assay on SK-MEL-28 melanoma, above 100 µM; in the assay on SW-620 colon, above 44.6 µM. Also, the results for the TGI in the assay with UACC-62 melanoma and in the assay on UO-31 renal were above 50.2 µM and above 60.1 µM, respectively.
